Test results: ChEMBL document CHEMBL1141558, “Design and synthesis of a siderophore conjugate as a potent PSMA inhibitor and potential diagnostic agent for prostate cancer” (Bioorg Med Chem, 2008)

Assays:
[1] = target: T1, Glutamate carboxypeptidase 2 (Homo sapiens, UniProt Q04609); assay: Inhibition of NAALADase expressed in LNCaP human prostate cancer cells; format: cell-based
[2] = target: T1, Glutamate carboxypeptidase 2; assay: Inhibition of human recombinant NAALADase

T1 sequence (Q04609 whole entry): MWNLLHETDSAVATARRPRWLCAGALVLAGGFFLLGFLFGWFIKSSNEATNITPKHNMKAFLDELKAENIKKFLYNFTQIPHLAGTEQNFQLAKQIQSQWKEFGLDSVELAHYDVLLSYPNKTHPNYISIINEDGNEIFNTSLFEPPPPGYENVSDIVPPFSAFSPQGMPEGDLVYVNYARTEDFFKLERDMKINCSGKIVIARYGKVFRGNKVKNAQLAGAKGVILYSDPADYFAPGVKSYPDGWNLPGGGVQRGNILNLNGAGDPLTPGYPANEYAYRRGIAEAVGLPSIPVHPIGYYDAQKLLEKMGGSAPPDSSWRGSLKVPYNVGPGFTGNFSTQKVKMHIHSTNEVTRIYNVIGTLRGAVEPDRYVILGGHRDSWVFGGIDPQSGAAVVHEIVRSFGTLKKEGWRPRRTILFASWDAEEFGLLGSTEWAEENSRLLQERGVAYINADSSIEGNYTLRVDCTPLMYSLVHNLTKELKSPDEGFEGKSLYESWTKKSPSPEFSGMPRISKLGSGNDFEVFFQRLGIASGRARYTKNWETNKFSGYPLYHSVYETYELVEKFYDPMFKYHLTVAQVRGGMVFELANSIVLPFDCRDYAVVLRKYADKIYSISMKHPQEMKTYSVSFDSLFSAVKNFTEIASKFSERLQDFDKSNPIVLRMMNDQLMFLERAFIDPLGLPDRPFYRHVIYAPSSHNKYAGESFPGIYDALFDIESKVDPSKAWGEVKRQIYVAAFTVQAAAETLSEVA

IC50 [1] [nM]	SMILES	IC50 [2] [nM]
12.5	O=C(O)CCC(CP(=O)(O)OCc1ccccc1)C(=O)O (configuration not stated)	–
–	CC(=O)N[C@@H](CCCN(O)C(C)=O)C(=O)N[C@@H](CCCN(O)C(C)=O)C(=O)N[C@@H](CCCN(O)C(C)=O)C(=O)NCCCC(=O)c1ccc(C(=O)NCC(=O)Nc2ccc(CCOP(=O)(O)C[C@@H](CCC(=O)O)C(=O)O)cc2)cc1	4
